Test results as given in patent US20240024292A1, “ATALUREN EYE DROP FORMULATION” (INSTITUT NATIONAL DE LA SANTÉ ET DE LA RECHERCHE MÉDICALE, priority 2020, published 2024).
≈ marks a conversion by molar mass, not a printed value. Entries after “also recorded” stand apart in the source; their conditions may differ. One block for each molecule: values may come before it.

Key:
[1] = Photolysis under simulated sunlight, with and without photocatalyst or photosensitizer; format: physicochemical; settings: for % remaining: Direct photolysis, visible ~119,600 lx, UVA 300-400 nm 66.5 W m^−2; for degradation in direct photolytic stress condition: direct light exposure
Protocol: (§1) For each unit, ataluren was quantified using the liquid chromatography method adapted from the method described by Kong et al.. Analyses were performed on a Thermo Scientific Ultimate 3000 chromatogram system (Villebon-sur-Yvette, France) including a quaternary pump (LPG 3400A), an automatic sampler (WPS 3000TSL), a diode array detector (DAD 300016) with 5 cm flow cell, and the associated software used to record and interpret chromatograms (Chromeleon®, Version 8.0). The stationary phase consisted in a Kinetex® C18 column (250×4.6 mm; 5 μm, Phenomenex, Le Pecq, France). The mobile phase was a gradient mixture of 0.1% formic acid (A) and acetonitrile (B). The flow rate was maintained at 1 mL/min, and the gradient profile was as follows: t0-11 min: A=30% B=70%; t11-15 min A=70% B=30%. The injection volume was 50 μL. The drug absorbance for quantification was obtained at 276 nm.
The specificity was assessed by subjecting the ataluren 1% solubilized in DMSO (10%) and castor oil solutions to various forced degradation conditions: 0.1M hydrochloric acid (HCl), 0.1M sodium hydroxide (NaOH), 0.3% and 15% hydrogen peroxide (H2O2) for 24 h, 48 h, and 72 h at 60° C. To mimic the potential photodegradation occurring prior or after drug administration, photolytic studies were carried out by exposing the drug solutions to direct UV-visible light with and without photocatalyst or photosensitizer (i.e. titanium oxide 1 g L-1, riboflavin 100 mg L-1). Photolysis experiments were performed using a QSUN-XE-1 (Q-Lab, Bolton, United Kingdom) light chamber equipped with a xenon lamp, which simulates natural sunlight in a wavelength range of 300-800 nm. A Daylight-Q filter was used to simulate CIE Standard Illuminant D65 (Q-Lab) and irradiance was maintained constant (1.5 W m-2 at 420 nm). The measurements corresponded to a visible intensity of ˜119,600 1×, and a UVA intensity at 300-400 nm of 66.5 W m-2. For all the experiments the temperature was controlled and set at 25±0.5° C.

[2] = Forced degradation studies (acidic, alkaline, oxidative stress at 60° C.), HPLC quantification; format: physicochemical
Protocol: as §1
[…] To mimic the potential photodegradation occurring prior or after drug administration, photolytic studies were carried out by exposing the drug solutions to direct UV-visible light with and without photocatalyst or photosensitizer (i.e. titanium oxide 1 g L-1, riboflavin 100 mg L-1). Photolysis experiments were performed using a QSUN-XE-1 (Q-Lab, Bolton, United Kingdom) light chamber equipped with a xenon lamp, which simulates natural sunlight in a wavelength range of 300-800 nm. […]

[3] = cited from earlier work
[4] = ophthalmic application, DMSO in association with dilute povidone-iodine; cited from earlier work

- appearance of degradation products ([2]; 15% hydrogen peroxide exposure): Degradation products appeared
- degradation under stress ([2]; strong acidic, basic or 0.3% H2O2 conditions, after 7 days exposure): not degraded
SMILES: O=C(O)c1cccc(-c2noc(-c3ccccc3F)n2)c1 [ataluren, 3-(5-(2-fluorophenyl)-1,2,4-oxadiazol-3-yl)benzoic acid]
- % remaining ([1]; 30 min exposition): 100.1%
- % remaining ([1]; 60 min exposition): 102.4%
- % remaining ([1]; 180 min exposition): 100.1%
- % remaining ([1]; 360 min exposition): 103.4%
- degradation in direct photolytic stress condition [1]: not degraded
- degradation in direct photolytic stress condition ([1]; listed as Ataluren): did not decrease
- degradation under light with photocatalyst ([1]; in presence of photocatalyst agent (titanium oxide)): rapidly degraded; also recorded: decreased
- degradation under light with photosensitizer ([1]; in the presence of riboflavin): This was not the case; also recorded: no degradation was observed
- solubility ([3]; 1:1 solution of DMSO: PBS pH 7.2): ~0.5 mg/mL (≈ 1760 µM)
- solubility in aqueous buffers ([3]; aqueous buffers): sparingly soluble
- solubility in organic solvents ([3]; organic solvents such as dimethyl sulfoxide (DMSO)): soluble
- solubility in water ([3]; water): very slightly soluble

SMILES: C[S+](C)[O-] [DMSO, dimethylsulfoxyde]
- patients with mild irritation (stinging, tingling or burning at the application), without serious adverse effects [4]: 11.8%
